From patent publication US20100130598A1, “METHODS FOR INDUCING PROGRAMMED CELL DEATH” (Novogen Research Pty Ltd., priority 2008, published 2010) come the findings set out here.

For one experiment, the system named is MIAPaCa-2. Description: MIAPaCa-2 pancreatic cancer xenograft. Format: in vivo, Balb/c nude mice. Particulars: MIAPaCa-2 model. How it is done: For xenograft studies, five week old male Balb/c nude mice were maintained on an isoflavone-free diet to remove background isoflavone levels contributed by standard feed. On the day of inoculation a suspension of MIAPaCa2 or HPAC cells was prepared in DMEM (-FBS), chilled on ice and then an equal volume of matrigel (BD) was added. Mice were inoculated subcutaneously with 3×10^6 MIAPaCa2 or HPAC cells bilaterally (midway between the axillary and inguinal region) along the dorsal surface, ensuring that cells to be injected were growing at mid-end log phase. Tumor growth was monitored over 10-15 days. Compound 10 was given orally by gavage in 1% carboxy methyl cellulose (CMC) as a vehicle. Gemcitabine was injected intraperiponeally in PBS. In combination groups animals were first dosed with Compound 10 and then dosed with gemcitabine using the respective administration schedule, dosage and route of delivery stated.

The test system of the next experiment is pancreatic cancer cells. The experiment can be described thus: Simultaneous caspase activation, apoptosis and necrosis (Annexin-V-Cy5/sytox blue) by flow cytometry. Particulars: Compound 10-treated, 10 μM, 48 hrs. The experiment is classed as cell-based, human. The method, then:
(§1) Cells. Human pancreatic cell lines HPAC, MIAPaCa-2 and PANC-1 were obtained from the ATCC. (Manassas, Va.). The cells were maintained in DMEM media with Gln and high glucose (Mediatech, Manassas, Va.) with 10% fetal bovine serum (FBS, HyClone, Logan, Utah) and pencillin/streptomycin.
Caspase Activity After 48 h treatment with 10 μM Compound 10, HPAC, MIAPaCa-2 and PANC-1 cells were harvested by trypsinization and resuspended in DMEM media with 10% FBS. The cells were incubated with caspase substrates for 1 h at 37° C., 5% CO2, then probed with Annexin-V-Cy5 and sytox blue. Caspase +ve cells were gated as shown in the histograms and these cells are indicated on the Annexin-V-Cy5/sytox blue spectra as blue cells. In situ caspase activity was assayed using fluorescent substrates. For Caspase 2, FITC-VDVAD-fmk (Biovision K182-100), for Caspase 3, FITC-DEVD-fmk (K183-100) and for Caspase 9, FITC-LEHD-fmk (K199-100) was used. These substrates bind irreversibly to their respective activated caspases, and caspase activation was quantitated by flow cytometry. After 1 hr incubation at 37° C. in 5% CO2, the cells were washed with DPBS containing 5% FBS and resuspended in Annexin-V binding buffer containing Annexin-V-Cy5 (Biovision K103-3) and sytox blue (Invitrogen), a dye that binds necrotic cells. Caspase activation, apoptosis and necrosis were measured simultaneously using a violet, blue and red laser in a BD LSRII flow cytometer.

In another experiment the test system is MIAPaCa-2 cells. Description: Cell cycle analysis by FACS (PI), MIAPaCa-2. Particulars: MIAPaCa-2, 10 μM. Format: cell-based, human. How it is done:
as §1
FACS Analysis. Apoptosis was measured by FACS analysis using Annexin-V-FITC and propidium iodide (PI) (Biovision, Mountain View, Calif.) as probes (Ahn et al., 2003). Mitochondrial membrane potential was measured by FACS analysis using JC-1 (Biovision) as a probe (Ahn et al., 2003). Cell cycle was analyzed on ethanol-fixed, RNaseA-treated cells staining with PI. In each spectrum, 10,000 gated events were recorded and analyzed with a FACSCalibur (BD Biosciences. San Jose, Calif.). All experiments were done in triplicate, error bars represent one standard deviation. Caspase inhibitor I (zVAD-fmk) was obtained from Calbiochem.
(In general: A flow cytometer gives signals particle by particle.)

The next experiment concerns XIAP. The experiment can be described thus: Western blot of EOC whole cell lysates for XIAP. The experiment is classed as cell-based, human. Particulars: EOC cells, 10 g/ml (as printed, FIG. 2 legend). The text has this:
(§2) Protein preparation and cellular fractionation. After drug treatment, protein was extracted and measured as previously described (Alvero et al, 2006). For separation of the cytoplasmic and mitochondrial fractions, cell pellets were processed using the ApoAlert™ Cell Fractionation Kit (BD Biosciences, San Jose, Calif.) according to the manufacturer's instructions. For separation of the cytoplasmic and nuclear fractions, pellets were processed using NE-PER Nuclear and Cytoplasmic Extraction (Pierce Biotechnology, Inc., Rockford, Ill.).
(§3) SDS-PAGE and Western blots. Cell lysates (20 μg protein) were denatured in sample buffer (2.5% SDS, 10% glycerol, 5% β-mercapto-ethanol, 0.15 M Tris (pH=6.8) and 0.01% bromophenol blue) and subjected to 12% SDS-PAGE as previously described (Kamsteeg et al, 2003). […]
For orientation: In western blotting, separated proteins are transferred to a membrane and probed.

The subject of experiment [1] is phosphorylated Akt (p-Akt). Description: Western blot of EOC whole cell lysates for phospho-Akt. The experiment is classed as cell-based, human. Particulars: EOC cells, 10 g/ml (as printed, FIG. 2 legend), as early as 15 mins post-treatment.
From the text: as §2, §3

The next experiment has as its system caspases-3/7, -8, and -9. The experiment can be described thus: Caspase-3/7, -8, and -9 activity assay (Caspase-Glo) on cell lysates. Format: cell-based, human. Particulars: EOC cells, 24 h; increasing concentrations of Compound 1 or 2 μM Paclitaxel. The text has this: Protein preparation and cellular fractionation. After drug treatment, protein was extracted and measured as previously described (Alvero et al, 2006). For separation of the cytoplasmic and mitochondrial fractions, cell pellets were processed using the ApoAlert™ Cell Fractionation Kit (BD Biosciences, San Jose, Calif.) according to the manufacturer's instructions. For separation of the cytoplasmic and nuclear fractions, pellets were processed using NE-PER Nuclear and Cytoplasmic Extraction (Pierce Biotechnology, Inc., Rockford, Ill.). Caspase-3/7, -8, and -9 activity assay. Ten μg of protein in a 50 μl total volume was mixed with 50 μl of equilibrated Caspase-Glo^10 3/7, 8, or 9 reagents (Promega). After incubating at room temperature for 1 h, luminescence was measured using TD 20/20 Luminometer (Turner Designs, Sunnyvale, Calif.). Blank values were subtracted and fold-increase in activity was determined in relation to the control non-treatment.

Another experiment has as its system AIF and EndoG. Description: Western blot of nuclear fractions for AIF and EndoG. The conditions noted are these: EOC cells, 10 μg/ml. Format: cell-based, human.
From the text: as §2, §3

As to `COc1ccc(C2c3ccc(O)cc3OCC2c2ccc(O)cc2)cc1` (centres unmarked) [Compound 10, 3-(4-hydroxyphenyl)-4-(4-methoxyphenyl)chroman-7-ol], the “% T/C (mean terminal tumor burden)” value with MIAPaCa-2 (Compound 10 100 mg/kg oral qd×12, gemcitabine 20 mg/kg q3d×4, alone or combined) was 94%. Further, the “rate of tumor proliferation” value with MIAPaCa-2 (oral 100 mg/kg, qd×12, vs vehicle control, level similar to gemcitabine) is “retarded”. Besides, in the experiment with pancreatic cancer cells, the “caspase positive cells that bound both Annexin-V-Cy5 and sytox blue (later stages of apoptosis)” value is on record as “Approximately 30%”; the “caspase positive cells that were Annexin-V positive and sytox blue negative (early stages of apoptosis)” value was “Approximately 60%”; the “caspase positive cells that were sytox blue positive and Annexin-V negative (necrosis)” value was “Less than 5%”. Further, in the experiment with MIAPaCa-2 cells, the “time of entering G2/M arrest post treatment” value was 24 to 48 h.
Consider `COc1ccc(C2c3ccc(O)c(C)c3OCC2c2ccc(O)cc2)cc1` (centres unmarked) [Compound 1, 3-(4-hydroxyphenyl)-4-(4-methoxyphenyl)-8-methylchroman-7-ol], for which the “status of XIAP” value in the experiment with XIAP is “no change”. Also, in experiment [1], the p-Akt level result is reported as “strong down-regulation”. For the same molecule, the “caspase-3/7, -8, and -9 activities” value in the experiment on caspases-3/7, -8, and -9 is on record as “no changes”. Besides, in the experiment on AIF and EndoG, the “level of nuclear AIF” value is “not” and the “level of nuclear EndoG” value is on record as “increase”.
